From US6949516B2, “Dipeptide apoptosis inhibitors and the use thereof” (Cytovia, Inc., priority 1997, dated 2005)
Where a SMILES comes first, the peptide text is derived from it. The star is where a group is joined. Cbz = O=C(OCc1ccccc1)*; CH2F = FC*

How the values were obtained:
[1] = tested on: HeLa cells; assay: Effect of Z-VD-fmk on TNF-α-induced cell death in HeLa cells (calcein AM, Example 25); assay type: cell-based; conditions: below 50 μM (data not shown)
Description: Tumor necrosis factor alpha (TNF-α) can trigger apoptosis in a number of cell types by initiating the caspase cascade and its apoptosis inducing activity can be inhibited by peptide-based caspase inhibitors. However, high concentrations of the inhibitors (50 μM or greater) is required to have good anti-apoptotic effect. HeLa cells, a cell line commonly employed in TNF-α cell death studies, was used here to determine the anti-apoptotic potency of Z-VD-fmk.
HeLa cells were seeded in 48-well multidishes at a density of 50,000 cells per well 24 hours before treatment. They were then pre-incubated with varying concentrations of Z-VD-fmk for 2 hours and challenged with TNF-α (25 ng/mL) and cycloheximide (CHX; 30 μg/mL). The cultures were incubated for an additional 24 hours and dead cells were removed by two washes with PBS. The density of surviving cells was then measured by incubating each culture for 45 minutes with calcein AM, a profluorescent dye which is taken up by living cells and converted to a fluorescent product. The resulting data were expressed as % control values (control values were cells incubated with cycloheximide but without TNF-α).
Z-VD-fmk provided good cytoprotection at concentrations approaching 100 nM.

[2] = tested on: HeLa cells; assay: Cell death assay with HeLa cells, qualitative (phase contrast microscopy), TNF-α/CHX challenge; assay type: cell-based; conditions: 24 hour incubation
Description: (§1) The cytoprotective properties of Cbz-Val-Asp(OMe)CH2F were tested using HeLa cells challenged with tumor necrosis factor-alpha (TNF-α) and cycloheximide (CHX). This is a well-characterized cell culture model of apoptosis which is commonly used to analyze anti-apoptotic agents. Two types of experiments were performed: a qualitative assessment of cell death by visualization of the cells using phase contrast microscopy; and a quantitative assessment of cell death using the fluorescent dye calcein AM.
For photomicroscopy, HeLa cells are seeded in 12-well multidishes at a density of 100,000 cells per well in Minimal Essential Medium containing 2 mM glutamine and 10% fetal bovine serum. 24 hours later the plating medium is removed and fresh medium is added containing the cytoprotective test compound at various concentrations. The cells are pre-incubated with test compound for 2 hours at 37° C. in a CO2 incubator and then TNF-α and CHX are added at final concentrations of 25 ng/mL and 30 μg/mL, respectively. After a 24 hour incubation period, the cells are examined visually for evidence of cell death based on cell shape and degree of adherence. Cells are considered dead if they have become rounded up and phase bright and have detached from the substratum. Cells are considered alive if they have retained their normal morphology and remain attached to the substratum.
All of these compounds are the methyl ester derivatives. […] At 50 μM, the related peptides BOC-Asp(OMe)-CH2F (FIG. 1C) and Cbz-Glu(OMe)-Val-Asp(OMe)-CH2F (FIG. 1E) are also protective.

[3] = tested on: HeLa cells; assay: Cell death assay with HeLa cells, quantitative (calcein AM), TNF-α/CHX challenge; assay type: cell-based
Description: as §1
For quantitative assays, the degree of cell survival in the presence of test compounds is analyzed quantitatively using the indicator dye calcein AM. This dye is taken up and converted to a fluorescent derivative by living cells; the amount of activated dye in each well can then be assayed in a fluorometric plate reader and the degree of fluorescence is used as a measure of the number of surviving cells. For these assays, HeLa cells are seeded in 48-well plates at a density of 25,000 cells per well in 0.4 mL of Minimal Essential Medium containing 2 mM glutamine and 10% fetal bovine serum. 24 hours later the plating medium is removed and 0.5 mL of fresh medium containing test compound at various concentrations is added. The cells are pre-incubated with test compound for 2 hours at 37° C. in a CO2 incubator and then TNF-α and CHX are added at final concentrations of 25 ng/mL and 30 μg/mL, respectively. After a 24 hour incubation period, the cultures are washed twice with serum-free, phenol red-free Ham's F12 to remove dead cells and 125 μL of Ham's F12 containing 8 μM calcein AM is added. […] The data are expressed as “Percent Control,” which is calculated by the following equation: Percent Control=(Calcein AM Signal in the Presence of Test Compound+TNF-α and CHX/(Calcein AM Signal in the Presence of CHX Only)×100% The use of CHX-treated cultures as controls, rather than untreated cultures, allows one to correct for the cytostatic effects of CHX. However, because CHX by itself is also a mild inducer of apoptosis in HeLa cells, strong anti-apoptotic drugs will give a Percent Control value greater than 100%.
Quantitative experiments using calcein AM, as described above, corroborate the results obtained by microscopic examination. FIGS. 4 and 5 illustrate the results of two such experiments where the cytoprotective properties of Cbz-Val-Asp(OMe)-CH2F (a) were compared to BOC-Asp(OMe)-CH2F (b) (FIG. 5) and Cbz-Asp(OMe)-Glu(OMe)-Val-Asp(OMe)-CH2F (SEQ ID NO:1) (c) (FIG. 4) at three concentrations (0.5, 5 and 50 μM). […] By contrast, Cbz-Val-Asp(OMe)-CH2F (a) is as effective a cytoprotectant at 0.5 μM as Cbz-Asp(OMe)-Glu(OMe)-Val-Asp(OMe)-CH2F (SEQ ID NO:1) […] is at 50 μM (FIG. 4).
In order to determine the effect of Cbz-Val-Asp(OMe)-CH2F at low doses, HeLa cells were treated with a range of concentrations from 0.05 μM to 1 μM.

[4] = tested on: PARP cleavage in Jurkat cells; assay: Inhibition of PARP cleavage in antiFas-treated Jurkat cells (Example 22, Western blot); assay type: cell-based, human; conditions: antiFas-treated Jurkat cells
Excerpt: The cleavage of the enzyme poly(ADP)ribose polymerase (PARP) appears to occur in all cells in which the caspase proteolytic cascade is activated. For this reason, PARP cleavage is widely used as a biochemical marker for caspase-mediated apoptosis. The ability of a cytoprotective drug to block PARP cleavage is considered to be an indication of the drug's ability to inhibit the caspase proteolytic cascade and, in particular, CPP32 (caspase-3), the main PARP protease. The ability of Cbz-Val-Asp(OMe)-CH2F to inhibit PARP cleavage was examined during Fas-mediated apoptosis of Jurkat cells, a human T-cell line. This cell culture model of apoptosis is well-characterized and is known to involve activation of at least two caspases, caspase-3 (CPP32) and caspase-8 (FLICE/MACH).
For PARP cleavage assays, Jurkat cells were seeded at a density of 500,000 cells per well in six-well multidishes in RPMI 1640 medium containing 10% FBS. The cells were pre-incubated with Cbz-Val-Asp(OMe)-CH2F or other test compounds for 2 hours at 37° C. in a CO2 incubator and then a monoclonal antibody to Fas was added at a final concentration of 500 ng/mL. Incubation at 37° C. in a CO2 incubator was continued for an additional 4 hours. […] An amount of lysate corresponding to 10 to 20 μg of protein was loaded on a 7.5% SDS polyacrylamide gel and electrophoresed for 2 to 2.5 hrs at 25 mA. The protein was then transferred to a PVDF membrane, probed with a rabbit polyclonal antibody to PARP, and visualized using chemiluminescence.
Jurkat cells were pre-incubated with 0.5, 5, or 50 μM of the following compounds: Cbz-Val-Asp(OMe)-CH2F (compound 1); BOC-Asp(OMe)-CH2F (compound 5); Cbz-Asp-α-([2,6-dichlorobenzoyloxy]-methyl ketone) (compound 6), Cbz-Glu(OMe)-Val-Asp(OMe)-CH2F (compound 3), Cbz-Asp(OMe)-Glu(OMe)-Val-Asp(OMe)-CH2F (SEQ ID NO:1) (compound 2), Cbz-Ile-Glu(OMe)-Thr-Asp(OMe)-CH2F (SEQ ID NO:2) (compound 4), or Cbz-Val-Ala-Asp(OMe)-CH2F (compound 7). The cells were then treated with antiFas and processed for Western Blotting.

[5] = biological target: T1, Caspase-3 (Homo sapiens, UniProt P42574); assay: Caspase-3 activity of the dipeptide inhibitors (Table III); assay type: biochemical
T1 sequence (P42574 29-175 limits assumed): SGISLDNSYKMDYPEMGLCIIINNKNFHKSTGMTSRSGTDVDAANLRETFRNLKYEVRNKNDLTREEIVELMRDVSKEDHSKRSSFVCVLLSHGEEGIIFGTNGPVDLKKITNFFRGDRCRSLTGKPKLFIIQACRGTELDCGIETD

| IC50 [5] [nM] | Molecule | inhibition of PARP cleavage ([4]; 0.5 μM) | inhibition of PARP cleavage ([4]; 5 μM) | inhibition of PARP cleavage ([4]; 50 μM) | also measured |
| --- | --- | --- | --- | --- | --- |
|  | CC(=O)N[C@@H](CC(=O)O)C(=O)N[C@@H](CCC(=O)O)C(=O)N[C@H](C(=O)N[C@H](C=O)CC(=O)O)C(C)C [Ac-DEVD-CHO] |  |  |  | cytoprotection against TNF-α-induced cell death [1]: very ineffective |
|  | COC(=O)CC(NC(=O)OC(C)(C)C)C(=O)CF (stereo not drawn) [BOC-Asp(OMe)-CH2F] | only marginally effective | effective inhibitors | effective inhibitors | cytoprotection of HeLa cells from apoptotic effects of TNF-α and CHX (microscopy) ([2]; 5 μM): less effective; cytoprotection of HeLa cells from apoptotic effects of TNF-α and CHX (microscopy) ([2]; 50 μM): protective; protection of HeLa cells from TNF-α/CHX (calcein AM) ([3]; 0.5 μM): inactive; protection of HeLa cells from TNF-α/CHX (calcein AM) ([3]; 5 μM): effective cytoprotectant; protection of HeLa cells from TNF-α/CHX (calcein AM) ([3]; 50 μM): effective cytoprotectant |
|  | COC(=O)CC[C@H](NC(=O)[C@H](CC(=O)OC)NC(=O)OCc1ccccc1)C(=O)N[C@H](C(=O)N[C@@H](CC(=O)OC)C(=O)CF)C(C)C [Cbz-Asp(OMe)-Glu(OMe)-Val-Asp(OMe)-CH2F] | only marginally effective | only marginally effective | inhibited PARP cleavage completely | cytoprotection of HeLa cells from apoptotic effects of TNF-α and CHX (microscopy) ([2]; 5 μM): no cytoprotective properties; cytoprotection of HeLa cells from apoptotic effects of TNF-α and CHX (microscopy) ([2]; 50 μM): only marginally effective; protection of HeLa cells from TNF-α/CHX (calcein AM) ([3]; 50 μM): only minimally effective |
|  | O=C(O)CC(NC(=O)OCc1ccccc1)C(=O)COC(=O)c1c(Cl)cccc1Cl (stereo not drawn) [Cbz-Asp-DCB, Cbz-Asp-α-([2,6-dichlorobenzoyloxy]methylketone)] | only marginally effective | only marginally effective | inhibited PARP cleavage completely |  |
|  | COC(=O)CC[C@H](NC(=O)OCc1ccccc1)C(=O)N[C@H](C(=O)N[C@@H](CC(=O)OC)C(=O)CF)C(C)C [Cbz-Glu(OMe)-Val-Asp(OMe)-CH2F] | only marginally effective | effective inhibitors | effective inhibitors | cytoprotection of HeLa cells from apoptotic effects of TNF-α and CHX (microscopy) ([2]; 5 μM): less effective; cytoprotection of HeLa cells from apoptotic effects of TNF-α and CHX (microscopy) ([2]; 50 μM): protective |
|  | CC[C@H](C)[C@H](NC(=O)OCc1ccccc1)C(=O)N[C@@H](CCC(=O)OC)C(=O)N[C@H](C(=O)N[C@@H](CC(=O)OC)C(=O)CF)[C@@H](C)O [Cbz-Ile-Glu(OMe)-Thr-Asp(OMe)-CH2F] (Cbz-IE(OMe)TD(OMe)-CH2F) | only marginally effective | only marginally effective | inhibited PARP cleavage completely |  |
|  | COC(=O)C[C@H](NC(=O)[C@H](C)NC(=O)[C@@H](NC(=O)OCc1ccccc1)C(C)C)C(=O)CF [Cbz-Val-Ala-Asp(OMe)-CH2F] (Cbz-Val-Ala-Asp(OMe)-CH2F) | only marginally effective | effective inhibitors | effective inhibitors | cytoprotection of HeLa cells from TNF-α/CHX at low doses ([3]; concentration range 0.05 μM to 1 μM): no cytoprotection |
|  | COC(=O)CC[C@H](NC(=O)[C@H](CC(=O)OC)NC(=O)OCc1ccccc1)C(=O)N[C@H](C(=O)N[C@@H](CC(=O)OC)C(=O)CF)C(C)C [Z-DEVD-fmk] |  |  |  | cytoprotection against TNF-α-induced cell death [1]: very ineffective |
| 770 | O=C(O)CC(NC(=O)C(Cc1cnc[nH]1)NC(=O)OCc1ccccc1)C(=O)CF [Z-L-His-Asp-fmk, Z-His-Asp-fmk] (Cbz-His-Asp-CH2F; configuration not given here) |  |  |  |  |
| 410 | O=C(O)C[C@H](NC(=O)[C@@H]1CCCN1C(=O)OCc1ccccc1)C(=O)CF [Z-L-Pro-Asp-fmk, Z-Pro-Asp-fmk] (Cbz-Pro-Asp-CH2F) |  |  |  |  |
| 660 | O=C(O)C[C@H](NC(=O)[C@H](Cc1ccc(O)cc1)NC(=O)OCc1ccccc1)C(=O)CF [Z-L-Tyr-Asp-fmk, Z-Tyr-Asp-fmk] (Cbz-Tyr-Asp-CH2F) |  |  |  |  |
| 1300 | CC(C)[C@@H](C(=O)N[C@@H](CC(=O)O)C(=O)CF)N(C)C(=O)OCc1ccccc1 [Z-N-Me-L-Val-Asp-fmk, Z-N-Me-Val-Asp-fmk] |  |  |  |  |
| 3500 | Cbz-Ala-Asp-CH2F [Z- -Ala-Asp-fmk] |  |  |  |  |
